Experiment: molar heat capacity at constant pressure
Conditions: 101.33 kPa, Crystal, Vacuum adiabatic calorimetry

[2H]O[2H] [water-d2]
Conditions	molar heat capacity at constant pressure [J/K/mol]
5 K	0.0363
6.58 K	0.0659
7.08 K	0.141
7.56 K	0.12
8.12 K	0.158
8.61 K	0.19
9.07 K	0.222
9.51 K	0.261
9.94 K	0.305
10 K	0.315
10.37 K	0.358
10.8 K	0.407
11.22 K	0.462
11.65 K	0.523
12.68 K	0.659
13.4 K	0.774
14.11 K	0.8996
14.93 K	1.051
15 K	1.07
15.65 K	1.193
16.38 K	1.337
17.11 K	1.492
17.84 K	1.652
18.58 K	1.814
19.33 K	1.982
20 K	2.125
20.08 K	2.152
21.87 K	2.524
24.35 K	3.102
25 K	3.246
26.84 K	3.651
29.35 K	4.206
30 K	4.322
31.87 K	4.729
34.41 K	5.231
36.93 K	5.723
39.46 K	6.213
40 K	6.304
41.98 K	6.674
44.5 K	7.12
47.01 K	7.558
49.52 K	8.018
50 K	8.154
52.01 K	8.514
54.5 K	9.012
56.99 K	9.486
59.48 K	9.885
60 K	9.968
62.01 K	10.32
64.5 K	10.83
66.98 K	11.22
69.45 K	11.66
70 K	11.72
71.93 K	12.02
74.43 K	12.44
76.9 K	12.74
79.38 K	13.19
80 K	13.39
81.85 K	13.77
82.58 K	13.86
84.31 K	14.14
84.89 K	14.3
87.37 K	14.74
89.84 K	15.12
90 K	15.16
92.31 K	15.57
94.78 K	15.98
97.24 K	16.41
99.71 K	16.82
100 K	16.89
102.17 K	17.25
104.63 K	17.71
107.09 K	18.15
109.53 K	18.67
110 K	18.7
111.98 K	19.03
114.42 K	19.58
116.87 K	19.92
119.31 K	20.41
120 K	20.48
121.79 K	20.81
124.23 K	21.21
126.67 K	21.62
129.11 K	22.03
130 K	22.2
131.54 K	22.45
133.98 K	22.91
136.41 K	23.27
138.85 K	23.7
140 K	23.89
141.28 K	24.08
143.71 K	24.5
146.14 K	24.9
148.57 K	25.31
150 K	25.54
151 K	25.71
153.43 K	26.1
